# Results taken from patent publication US20060142348A1, “Aryl sulfonamide peri-substituted bicyclics for occlusive artery disease” (deCODE Chemistry, Inc., priority 2004, published 2006).
# Molecular target: T1, prostanoid EP3 receptors (Homo sapiens, UniProt P43115)
# T1 sequence (P43115 1-365 isoform P43115-3): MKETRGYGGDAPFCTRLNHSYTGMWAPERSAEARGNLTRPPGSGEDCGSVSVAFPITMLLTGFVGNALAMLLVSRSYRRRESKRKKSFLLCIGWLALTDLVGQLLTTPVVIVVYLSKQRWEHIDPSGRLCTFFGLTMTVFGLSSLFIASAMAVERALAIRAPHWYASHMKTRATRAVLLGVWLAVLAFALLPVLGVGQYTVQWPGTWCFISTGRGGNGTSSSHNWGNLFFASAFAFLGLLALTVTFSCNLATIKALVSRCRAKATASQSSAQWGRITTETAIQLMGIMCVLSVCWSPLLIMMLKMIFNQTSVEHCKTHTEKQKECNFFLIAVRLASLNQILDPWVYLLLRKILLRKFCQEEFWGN
# Assay: binding on prostanoid EP3 receptors (method of Abramovitz et al.)
# Conditions: read-out: Activity (EP3 receptor binding IC50)
# Protocol: The compounds of the invention may be assayed for their binding on prostanoid EP3 receptors according to the method of Abramovitz et al. [Bioch. Biophys. Actas 1473, 285-293 (2000)]. All of the examples in the tables below have been synthesized, characterized and tested for EP3 receptor binding.
# The compounds of the invention were assayed for their binding on prostanoid EP3 receptors according to the method of Abramovitz et al. [Bioch. Biophys. Acta, 1473, 285-293 (2000)]. […] Compounds with IC50<1 μM are shown as +++; compounds with IC50<1-10 μM are shown as ++; and compounds with IC50>10 μM are shown as +.
row,Compound,IC50
1,"Cc1cn(Cc2ccc(Cl)cc2Cl)c2c(-c3cc(NS(=O)(=O)c4cc(F)c(F)cc4F)no3)cc(F)cc12 [Compound B36, N-{5-[1-(2,4-Dichloro-benzyl)-5-fluoro-3-methyl-1H-indol-7-yl]-isoxazol-3-yl}-2,4,5-trifluoro-benzenesulfonamide]",< 1000 nM
2,"Cc1cn(Cc2ccc(F)c(F)c2)c2c(-c3cc(NS(=O)(=O)c4cc(Cl)c(Cl)s4)no3)cc(F)cc12 [Compound B31, 4,5-Dichloro-thiophene-2-sulfonic acid {5-[1-(3,4-difluoro-benzyl)-5-fluoro-3-methyl-1H-indol-7-yl]-isoxazol-3-yl}-amide]",< 1000 nM
3,"Cn1cc(Cc2ccc3ccccc3c2)c2c(-c3ccc(NS(=O)(=O)C(F)(F)F)cc3)cccc21 [Compound B08, C,C,C-Trifluoro-N-[4-(1-methyl-3-naphthalen-2-ylmethyl-1H-indol-4-yl)-phenyl]-methanesulfonamide]",1000 to 10000 nM
4,"Cc1cn(Cc2ccc(Cl)cc2Cl)c2c(-c3nnc(NS(=O)(=O)c4cc(F)c(F)cc4F)o3)cc(F)cc12 [Compound B12, N-{5-[1-(2,4-Dichloro-benzyl)-5-fluoro-3-methyl-1H-indol-7-yl]-[1,3,4]oxadiazol-2-yl}-2,4,5-trifluoro-benzenesulfonamide]",< 1000 nM
5,"Cc1cn(Cc2ccc(Cl)cc2Cl)c2c(-c3nnc(NC(=O)c4ccno4)o3)cc(F)cc12 [Compound B24, Isoxazole-5-carboxylic acid {5-[1-(2,4-dichloro-benzyl)-5-fluoro-3-methyl-1H-indol-7-yl]-[1,3,4]oxadiazol-2-yl}-amide]",1000 to 10000 nM
6,"Cc1cn(Cc2ccc3ccccc3c2)c2c(-c3cc(NS(=O)(=O)c4ccc(Cl)c(Cl)c4)no3)cc(F)cc12 [Compound B40, 3,4-Dichloro-N-[5-(5-fluoro-3-methyl-1-naphthalen-2-ylmethyl-1H-indol-7-yl)-isoxazol-3-yl]-benzenesulfonamide]",< 1000 nM
7,"Cc1cn(Cc2ccc(Cl)cc2Cl)c2c(-c3nnc(NC(=O)c4ccc(Cl)cc4Cl)o3)cc(F)cc12 [Compound B28, 2,4-Dichloro-N-{5-[1-(2,4-dichloro-benzyl)-5-fluoro-3-methyl-1H-indol-7-yl]-[1,3,4]oxadiazol-2-yl}-benzamide]",1000 to 10000 nM
8,"Cc1cn(Cc2ccc(Cl)cc2Cl)c2c(-c3nnc(NC(=O)c4ccc5c(c4)OC(F)(F)O5)o3)cc(F)cc12 [Compound B29, 2,2-Difluoro-benzo[1,3]dioxole-5-carboxylic acid {5-[1-(2,4-dichloro-benzyl)-5-fluoro-3-methyl-1H-indol-7-yl]-[1,3,4]oxadiazol-2-yl}-amide]",< 1000 nM
9,"Cc1cn(Cc2ccc3ccccc3c2)c2c(-c3cc(NS(=O)(=O)c4cc(F)c(F)cc4F)no3)cc(F)cc12 [Compound B39, 2,4,5-Trifluoro-N-[5-(5-fluoro-3-methyl-1-naphthalen-2-ylmethyl-1H-indol-7-yl)-isoxazol-3-yl]-benzenesulfonamide]",< 1000 nM
10,"Cc1cn(Cc2ccc(F)c(F)c2)c2c(-c3cc(NS(=O)(=O)c4ccc(F)c(F)c4)no3)cc(F)cc12 [Compound B32, N-{5-[1-(3,4-Difluoro-benzyl)-5-fluoro-3-methyl-1H-indol-7-yl]-isoxazol-3-yl}-3,4-difluoro-benzenesulfonamide]",< 1000 nM
11,"Cc1cn(Cc2ccc(F)c(F)c2)c2c(-c3cc(NS(C)(=O)=O)no3)cc(F)cc12 [Compound B16, N-{5-[1-(3,4-Difluoro-benzyl)-5-fluoro-3-methyl-1H-indol-7-yl]-isoxazol-3-yl}-methanesulfonamide]",> 10000 nM
12,"CC(=O)Nc1ccc(-c2cccc3c2c(Cc2ccc4ccccc4c2)cn3C)cc1 [Compound B17, N-[4-(1-Methyl-3-naphthalen-2-ylmethyl-1H-indol-4-yl)-phenyl]-acetamide]",1000 to 10000 nM
13,"Cc1cn(Cc2ccc(Cl)cc2Cl)c2c(-c3nnc(NS(=O)(=O)c4ccc(F)c(F)c4)o3)cc(F)cc12 [Compound B19, N-{5-[1-(2,4-Dichloro-benzyl)-5-fluoro-3-methyl-1H-indol-7-yl]-[1,3,4]oxadiazol-2-yl}-3,4-difluoro-benzenesulfonamide]",< 1000 nM
14,"Cc1cn(Cc2ccc(F)c(F)c2)c2c(-c3ccc(NS(C)(=O)=O)cc3)cc(F)cc12 [Compound B06, N-{4-[1-(3,4-Difluoro-benzyl)-5-fluoro-3-methyl-1H-indol-7-yl]-phenyl}-methanesulfonamide]",1000 to 10000 nM
15,"Cc1cn(Cc2ccc(Cl)cc2Cl)c2c(-c3nnc(NC(=O)c4ccc(F)cc4F)o3)cc(F)cc12 [Compound B27, N-{5-[1-(2,4-Dichloro-benzyl)-5-fluoro-3-methyl-1H-indol-7-yl]-[1,3,4]oxadiazol-2-yl}-2,4-difluoro-benzamide]",1000 to 10000 nM
16,"Cn1cc(-c2csc(NS(=O)(=O)c3ccc(F)c(F)c3)n2)c2c(Oc3ccc4ccccc4c3)cccc21 [Compound B44, 3,4-Difluoro-N-{4-[1-methyl-4-(naphthalen-2-yloxy)-1H-indol-3-yl]-thiazol-2-yl}-benzenesulfonamide]",1000 to 10000 nM
17,"Cc1cn(Cc2ccc(Cl)cc2Cl)c2c(-c3nc(NS(=O)(=O)c4cc(Cl)c(Cl)s4)no3)cc(F)cc12 [Compound B42, 5-Dichloro-thiophene-2-sulfonic acid {5-[1-(2,4-dichloro-benzyl)-5-fluoro-3-methyl-1H-indol-7-yl]-[1,2,4]oxadiazol-3-yl}-amide]",< 1000 nM
18,"Cc1cn(Cc2ccc(Cl)cc2Cl)c2c(-c3nnc(NC(=O)c4cc(Cl)cc(Cl)c4)o3)cc(F)cc12 [Compound B25, 3,5-Dichloro-N-{5-[1-(2,4-dichloro-benzyl)-5-fluoro-3-methyl-1H-indol-7-yl]-[1,3,4]oxadiazol-2-yl}-benzamide]",> 10000 nM
19,"Cc1cn(Cc2ccc3ccccc3c2)c2c(-c3cc(NS(=O)(=O)c4ccc(F)c(F)c4)no3)cc(F)cc12 [Compound B38, 3,4-Difluoro-N-[5-(5-fluoro-3-methyl-1-naphthalen-2-ylmethyl-1H-indol-7-yl)-isoxazol-3-yl]-benzenesulfonamide]",< 1000 nM
20,"Cc1cn(Cc2ccc(Cl)cc2Cl)c2c(-c3cc(NS(=O)(=O)c4ccc(Cl)c(Cl)c4)no3)cc(F)cc12 [Compound B37, 3,4-Dichloro-N-{5-[1-(2,4-dichloro-benzyl)-5-fluoro-3-methyl-1H-indol-7-yl]-isoxazol-3-yl}-benzenesulfonamide]",< 1000 nM
21,"Cc1cn(Cc2ccc(Cl)cc2Cl)c2c(-c3nnc(NC(=O)c4ccc(F)cc4)o3)cc(F)cc12 [Compound B23, N-{5-[1-(2,4-Dichloro-benzyl)-5-fluoro-3-methyl-1H-indol-7-yl]-[1,3,4]oxadiazol-2-yl}-4-fluoro-benzamide]",1000 to 10000 nM
22,"Cc1cn(Cc2ccc(Cl)cc2Cl)c2c(-c3nnc(NS(=O)(=O)c4ccc(Cl)c(Cl)c4)o3)cc(F)cc12 [Compound B20, 3,4-Dichloro-N-{5-[1-(2,4-dichloro-benzyl)-5-fluoro-3-methyl-1H-indol-7-yl]-[1,3,4]oxadiazol-2-yl}-benzenesulfonamide]",< 1000 nM
23,"Cn1cc(-c2csc(NS(=O)(=O)c3cc(Cl)c(Cl)s3)n2)c2c(Oc3ccc4ccccc4c3)cccc21 [Compound B43, 4,5-Dichloro-thiophene-2-sulfonic acid {4-[1-methyl-4-(naphthalen-2-yloxy)-1H-indol-3-yl]-thiazol-2-yl}-amide]",1000 to 10000 nM
24,"Cc1cn(Cc2ccc(Cl)cc2Cl)c2c(-c3nnc(NC(=O)C(F)(F)F)o3)cc(F)cc12 [Compound B10, N-{5-[1-(2,4-Dichloro-benzyl)-5-fluoro-3-methyl-1H-indol-7-yl]-[1,3,4]oxadiazol-2-yl}-2,2,2-trifluoro-acetamide]",1000 to 10000 nM
25,"Cc1cn(Cc2ccc(Cl)cc2Cl)c2c(-c3nnc(NC(=O)c4ccco4)o3)cc(F)cc12 [Compound B30, Furan-2-carboxylic acid {5-[1-(2,4-dichloro-benzyl)-5-fluoro-3-methyl-1H-indol-7-yl]-[1,3,4]oxadiazol-2-yl}-amide]",< 1000 nM
26,"Cn1cc(Cc2ccc3ccccc3c2)c2c(-c3ccc(NC(=O)C(F)(F)F)cc3)cccc21 [Compound B18, 2,2,2-Trifluoro-N-[4-(1-methyl-3-naphthalen-2-ylmethyl-1H-indol-4-yl)-phenyl]-acetamide]",< 1000 nM
27,"Cn1cc(Cc2ccc3ccccc3c2)c2c(-c3cccc(NS(=O)(=O)c4cc(Cl)c(Cl)s4)c3)cccc21 [Compound B03, 4,5-Dichloro-thiophene-2-sulfonic acid[3-(1-methyl-3-naphthalen-2-ylmethyl-1H-indol-4-yl)-phenyl]-amide]",1000 to 10000 nM
28,"Cc1cn(Cc2ccc(Cl)cc2Cl)c2c(-c3nnc(NC(=O)c4ccc(F)c(F)c4)o3)cc(F)cc12 [Compound B26, N-{5-[1-(2,4-Dichloro-benzyl)-5-fluoro-3-methyl-1H-indol-7-yl]-[1,3,4]oxadiazol-2-yl}-3,4-difluoro-benzamide]",< 1000 nM
29,"Cc1cn(Cc2ccc(F)c(F)c2)c2c(-c3cc(NS(=O)(=O)c4cc(Cl)c(Cl)s4)n(C)n3)cc(F)cc12 [Compound B15, 4,5-Dichloro-thiophene-2-sulfonic acid {5-[1-(3,4-difluoro-benzyl)-5-fluoro-3-methyl-1H-indol-7-yl]-2-methyl-2H-pyrazol-3-yl}-amide]",1000 to 10000 nM
